Measurements taken from patent publication US4704384A, “Aziridinyl quinone antitumor agents” (priority 1981, dated 1987).
Several values for one entry are separate records, joined by “and”; a condition that tells them apart may be missing. Identical values can stand only once. Entries after “also recorded” stand apart in the source; their conditions may differ. Like-named read-outs stand apart in the source and are kept apart here.

Columns and labels:
[1] = test system: lymphoid leukemia L1210; settings: for OD / ILS / animals alive per 6 / T-C: Table VIII; for animals alive per 6: QD1-9, day 30, at OD
Source text: ^b Ip tumor implantation, ip QD19 treatment schedule.
^e ILS = [(treated survival + control survival) × 100%] - 100%
The L1210, P388 and B16 test systems described in Table II utilize intraperitoneal (IP) tumor implantation and IP drug treatment while the Lewis lung system employs subcutaneous tumor implantation and IP treatment. All three CNS tumor models (Table III) use intracerebral (IC) tumor implantation and IP treatment.
Aqueous saline solution (0.9%) was used as the drug vehicle. Normally, five doses were employed per experiment with the top dose chosen to produce toxicity. The lower doses were 50% of each preceeding dose.
Consistent with NCI antitumor test protocols, intraperitoneal (IP) administration of the drug was employed with all five tumor systems investigated. Tumor implantation was IP in the systems designated IP leukemia L1210 and P388 as well as B16 melanoma. Intracerebral (IC) tumor implantation was utilized in the IC L1210 and ependymoblastoma tumor systems.

[2] = test system: lymphoid leukemia L1210; assay type: in vivo, murine; settings: for OD: QD1-9, Table X; for ILS: QD1-9, at OD, Table X
Source text: (§1) A third IC tumor model, the ependymoblastoma system, was also studied. This system requires intracerebral implantation of a solid tumor fragment while the IC L1210 and IC P388 systems utilize IC inoculated ascites tumor fluid. All three use IP drug treatment however. […] Cures (survivors from the group of six mice on the last day of the experiment) are indicated.

[3] = test system: ependymoblastoma; assay type: in vivo, murine; settings: for OD: QD1-5, Table X; for animals alive per 6: QD1-5, day 60, at OD; for animals alive per 6 / ILS: Table X; for survivors, EM: Table XI, parentheses, per 6; for ILS: QD1-5, at OD
Source text: ^c Ic tumor implantation, ip QD15 treatment schedule.
as §1

[4] = test system: B16 melanocarcinoma; assay type: in vivo, murine; settings: for OD: QD1-9, Table IX; for ILS: QD1-9, at OD, Table IX
[5] = test system: lymphocytic leukemia P388; assay type: in vivo, murine; settings: for OD: QD1-9, Table IX; for ILS: QD1-9, at OD

SMILES	activity in IP L1210 [1]	OD [3]	OD [4]	ILS [4]	OD ([1]; Day 1 only (1 injection))	ILS ([1]; Day 1 only, at OD)	OD ([1]; Q4D (day 1,5,9))	ILS ([1]; Q4D, at OD)	OD ([1]; QD1-9 (9 injections))	ILS ([1]; QD1-9, at OD)	OD [5]	ILS ([5]; Table IX)	ILS [3]	also measured
CCSC1=C(N2CC2)C(=O)C(SCC)=C(N2CC2)C1=O [Compound 5]	not reproducible													% ILS ([1]; Q4D schedule): 30%
CCCSC1=C(N2CC2)C(=O)C(SCCC)=C(N2CC2)C1=O [Compound 6]	inactive													
CCOC(=O)NC1=C(N2CC2C)C(=O)C(NC(=O)OCC)=C(N2CC2C)C1=O (stereo not drawn) [Compound 10]	abolished activity													
CCOC(=O)NC1=C(N2CC2(C)C)C(=O)C(NC(=O)OCC)=C(N2CC2(C)C)C1=O [Compound 11]	abolished activity													
CCOC(=O)NC1=C(NCCCl)C(=O)C(NC(=O)OCC)=C(NCCCl)C1=O [Compound 12]	activity was abolished													
CC(=O)NC1=C(N2CC2(C)C)C(=O)C(NC(C)=O)=C(N2CC2(C)C)C1=O [Compound 21]	abolished activity													
CNC1=C(N2CC2C)C(=O)C(NC)=C(N2CC2C)C1=O (stereo not drawn) [Compound 26]		10.0 mg/kg/injection and 5.0 mg/kg/injection	5.0 mg/kg/injection	70% and 48%	5.0 mg/kg/injection and 10.0 mg/kg/injection	42% and 39%	12.5 mg/kg/injection	93% and 52%	5.0 mg/kg/injection	69% and 37%				OD [2]: 5.0 mg/kg/injection and 10.0 mg/kg/injection; ILS [2]: 39% and 25%; activity in ependymoblastoma [3]: highly active; animals alive per 6 [3]: 1; survivors, EM [3]: 1; activity in B16 melanoma [4]: reproducibly active
O=C1C(F)=C(N2CC2)C(=O)C(N2CCOCC2)=C1N1CC1 [Compound 31, 2,5-DIAZIRIDINYL-3-FLUORO-5-MORPHOLINO-1,4-BENZOQUINONE]		0.8 mg/kg/injection and 1.5 mg/kg/injection	0.7 mg/kg/injection	18% and 9%			6.2 mg/kg/injection and 3.1 mg/kg/injection				3.0 mg/kg/injection and 6.0 mg/kg/injection	57% and 54%	49% and 40%	activity in IP P388 [5]: active against leukemia P388
CNC1=C(N2CC2)C(=O)C(NC)=C(N2CC2)C1=O [Compound 34]		0.2 mg/kg/injection and 0.4 mg/kg/injection		39% and 29%	0.7 mg/kg/injection		0.8 mg/kg/injection and 0.4 mg/kg/injection	57% and 56%	0.2 mg/kg/injection	73% and 61%	0.2 mg/kg/injection and 0.1 mg/kg/injection	95% and 69%	219% and 218%	activity in IC L1210 [2]: most active; also recorded: significant activity; OD [2]: 0.4 mg/kg/injection and 0.2 mg/kg/injection; ILS [2]: 68% and 60%; activity in ependymoblastoma [3]: among the most active materials; animals alive per 6 [3]: 5 and 4; survivors, EM [3]: 5; activity in B16 melanoma [4]: approached minimal reproducible activity; animals alive per 6 [1]: 1
CCNC1=C(N2CC2)C(=O)C(NCC)=C(N2CC2)C1=O [Compound 35, 2,5-DIAZIRIDINYL-3,6-BIS(ETHYLAMINO)-1,4-BENZOQUINONE]	activity appears to peak	1.5 mg/kg/injection	0.4 mg/kg/injection and 0.7 mg/kg/injection	26% and 24%	1.5 mg/kg/injection	68% and 54%	3.0 mg/kg/injection and 1.5 mg/kg/injection	75% and 57%	1.5 mg/kg/injection	112% and 91%		160% and 103%	218% and 187%	OD [2]: 3.0 mg/kg/injection; ILS [2]: 44% and 40%; activity in ependymoblastoma [3]: most active; animals alive per 6 [3]: 2; survivors, EM [3]: 2; T-C ([1]; QD1-9, day 5, at OD): -3.3 grams; animals alive per 6 [1]: 2 and 1; survivors, IP L1210 ([1]; Table XI, parentheses, per 6): 2
CCCNC1=C(N2CC2)C(=O)C(NCCC)=C(N2CC2)C1=O [Compound 36]	significant reduction in activity	5.0 mg/kg/injection and 10.0 mg/kg/injection	5.0 mg/kg/injection	36% and 32%		17%	6.2 mg/kg/injection	28% and 25%	6.2 mg/kg/injection	48% and 43%	6.0 mg/kg/injection	151% and 108%	259% and 143%	animals alive per 6 ([5]; QD1-9, day 30, at OD, Table IX): 2; survivors, P388 ([5]; Table XI, parentheses, per 6): 2; activity in ependymoblastoma [3]: highly active; also recorded: very active; also recorded: most active; animals alive per 6 [3]: 2 and 1; survivors, EM [3]: 2
CCCCNC1=C(N2CC2)C(=O)C(NCCCC)=C(N2CC2)C1=O [Compound 37]	significant reduction in activity	6.0 mg/kg/injection and 3.0 mg/kg/injection	10.0 mg/kg/injection and 5.0 mg/kg/injection		10.0 mg/kg/injection	11% and 5%	12.5 mg/kg/injection and 8.2 mg/kg/injection	44% and 25%	10.0 mg/kg/injection and 5.0 mg/kg/injection	36% and 30%	5.0 mg/kg/injection and 10.0 mg/kg/injection	64% and 49%	93%	
O=C1C(N2CCCC2)=C(N2CC2)C(=O)C(N2CCCC2)=C1N1CC1 [Compound 43, 2,5-DIAZIRIDINYL-3,6-DIPYRROLIDINO-1,4-BENZOQUINONE]		1.6 mg/kg/injection and 3.1 mg/kg/injection	2.0 mg/kg/injection	28% and 18%	4.0 mg/kg/injection and 2.0 mg/kg/injection	8%	6.2 mg/kg/injection	43%	2.0 mg/kg/injection	24% and 21%		72% and 55%		T-C ([1]; Q4D, day 5, at OD): -2.3 grams
O=C1C(N2CCCCC2)=C(N2CC2)C(=O)C(N2CCCCC2)=C1N1CC1 [Compound 44]			5.0 mg/kg/injection and 2.5 mg/kg/injection			16% and 8%		26% and 22%	10.0 mg/kg/injection	28%	5.0 mg/kg/injection and 10.0 mg/kg/injection	46% and 77%	68% and 46%	T-C ([1]; QD1-9, day 5, at OD): -2.2 grams
O=C1C(N2CCOCC2)=C(N2CC2)C(=O)C(N2CCOCC2)=C1N1CC1 [Compound 46, 2,5-DIAZIRIDINYL-3,6-DIMORPHOLINO-1,4-BENZOQUINONE]				24% and 17%		-14%	6.0 mg/kg/injection	49% and 44%		64% and 32%	0.5 mg/kg/injection and 0.7 mg/kg/injection	52% and 48%	134% and 82%	T-C ([1]; Q4D, day 5, at OD): -2.6 grams
